Assay results as given in patent publication US10479814B2, “Adenosine receptor activation reagent and the uses of thereof” (Zhejiang Subtropical Crops Research Institute, priority 2014, dated 2019).
“Also recorded” adds a separate entry of the source.

Legend:
[1] = system: pentylenetetrazole induced convulsion; test: pentylenetetrazole induced convulsion in mouse; assay type: in vivo
Protocol: Male ICR mouse, 18˜22 g; purchased from Animal Experiment Center of Wenzhou Medical University. Before experiment, animals were adapted to environment for at least 5 days. Kept at 25 °C, food and water were freely fed. Based on the weight, the healthy male ICR mice were randomly divided into control group (1% DMSO, ip), model group, CCPA group (0.1 mg·kg^−1, ip), HEA group (15 mg/kg, 40 mg/kg, 60 mg/kg), DPCPX group (2 mg·kg^−1, ip), ZM241385 group (1 mg·kg^−1, 5 mg·kg^−1, ip), DPCPX+HEA (2 mg·kg^−1+40 mg/kg, ip) group and ZM241385+HEA (1 mg·kg^−1+40 mg/kg, 5 mg·kg^−1+40 mg/kg ip) group.
The survival time and mortality after convulsion were respectively recorded for each group.

[2] = system: rat middle cerebral artery distal obstruction cerebral ischemia model; test: dMCAO cerebral ischemia: neurologic function score; assay type: in vivo
Protocol: Using rat middle cerebral artery distal obstruction cerebral ischemia model. (1) according to rat weight, 10% chloral hydrate (3 ml/kg) was peritoneally injected to anaesthetize. […]
3.3.1 the neurologic function score of the animal in conscious were scored for the rat behaviour according to the Neurological Defects 4 Score in 5 Grade Method by Longa E Z et al ^[4] : 0 point: no significant neurologic function impairment; 1 point: unable to stretch forelimbs on opposite sides; 2 point: rolling to the opposite side when walking; 3 point: duping to the opposite side when walking; 4 point: unable to spontaneously walk, and loss of consciousness.

[3] = system: mouse sleep induced by pentobarbital sodium; test: sleep induced by threshold dose of pentobarbital sodium; assay type: in vivo
Protocol: Male ICR mice were randomly divided into four groups, respectively control group, positivediazepam (1 mg/kg) group, HEA (25 mg/kg) group and DPCPX+HEA (2 mg/kg+25 mg/kg) group. […]
Regarding the mouse righting reflex disappear for 1 min within 15 min as the hypnagogic criterion, sleep latency and sleep duration were recorded for the mice in each group.

[4] = system: pain writhing response induced by 0.7% acetic acid; test: acetic acid writhing method (analgesia); assay type: in vivo, mouse; conditions: for effect of A1 antagonist on analgesic effect of the HEA: DPCPX 1 mg/kg ip 10 minutes before HEA 15 mg/kg
Protocol: Clean male Kunming mice, weight 18-22 g, selecting adenosine AiR antagonist DPCPX. The mice were divided into solvent group, HEA (15 mg/kg) group, DPCPX (1 mg/kg) and DPCPX+HEA (1 mg/kg+15 mg/kg) group; wherein in DPCPX+HEA group, the mouse was peritoneally injected with antagonist, after 10 minutes, the HEA was peritonealy injected. Using writhing method, the treatment dose was given, after 30-40 minutes, 0.7% acetic acid was peritoneally injected, and writhing number of the white mouse within 15 minutes was recorded, calculating the reduction number of pain writhing response induced by 0.7% acetic acid by the HEA.

[5] = system: mouse kidney ischemia reperfusion; test: kidney ischemia reperfusion: kidney histopathologic examination (HE); assay type: in vivo; conditions: vs IR group, DPCPX 1 mg/kg; for renal tubulointerstitial impairment score: P<0.01, HEA 5, 7.5, 10 mg/kg, DPCPX 1 mg/kg+HEA 5 or 7.5 mg/kg; for kidney histopathological changes (HE×400): HEA groups printed as 2.5, 5, 7.5 mg/kg, DPCPX+HEA 5 or 7.5 mg/kg
Protocol: Male C57BL/6 mice 20-25 g, after one week of adaptive feeding to the animals, were randomly divided into eight groups: sham-operation group, IR group, HEA 5 mg/kg group, HEA 7 mg/kg group, HEA 10 mg/kg group, DPCPX (1 mg/kg) group, DPCPX (1 mg/kg)+HEA (5 mg/kg) group and DPCPX (1 mg/kg)+HEA (7.5 mg/kg) group. The mouse was weighed before operation, then peritoneally injected with pentobarbital sodium 50 mg/kg to anaesthetize the mouse, abdomen was opened by ventromedial incision, blunt dissection and the kidney pedicle was sufficiently exposed, renal ischemia was induced by clapping two side kidney pedicle with non-invasive bulldog clamp, the color of kidney change from bright red to purple black immediately, determination method of success of the experiment model can refer to the methods in literature 7 and 8. At time of 30 min of ischemia the bulldog clamp was loosened, the perfuse was restored, the color of kidney changed gradually from dark red to bright red, showing re perfusion was successful. The wound was stitched. The animals were freely fed water and food. In the sham-operation group, the mice only received operation of abdomen open, kidney pedicle and abdomen suture. The kidney IR mode were made for the mice in the remaining groups. In each drug group, before 15 minute of ischemia, the drug with corresponding concentration was speritoneally injected, in drug combination group, 15 minutes before ischemia, the drugs were given simultaneously. At 24 hours after reperfusion, the mouse was anaesthetized again, the kidney specimen was obtained. The kidney specimen is fixed by 10% formaldehyde solution, paraffin embedded, sectioned, hematoxylin-eosin staining (HE), and the kidney histopathological change was observed under optical microscope.

| SMILES | effect of antagonist on the anti-convulsion action of the HEA ([1]; antagonist ip 10 min before HEA 40 mg/kg, DPCPX 2 mg/kg, ZM241385 1 and 5 mg/kg) | antagonism of the protective effects of HEA in dMCAO ([2]; HEA 7.5 mg/kg + DPCPX 1 mg/kg ip, all dMCAO readouts) | effect of adenosine receptor antagonist on hypnosis effect of the HEA ([3]; DPCPX+HEA 2 mg/kg+25 mg/kg) | effect of A1 antagonist on analgesic effect of the HEA [4] | effect of A1 antagonist on analgesic effect of the HEA ([4]; listed as adenosine A1 receptor antagonist) | renal tubulointerstitial impairment score [5] | kidney histopathological changes (HE×400) [5] | survival time after convulsion ([1]; HEA 40 mg/kg ip, pentylenetetrazole 100 mg/kg ip, vs control group) | mortality of mouse convulsion ([1]; HEA 40 mg/kg, pentylenetetrazole 100 mg/kg ip) | neurologic function score ([2]; dMCAO rat, HEA 5, 7.5, 12 mg/kg ip (7.5 mg/kg) 30 min before operation, vs model group) | sleep time induced by threshold dose of pentobarbital sodium ([3]; HEA 25 mg/kg, sc, pentobarbital sodium 50 mg/kg) | sleep latency ([3]; HEA 25 mg/kg, sc, pentobarbital sodium 50 mg/kg, vs control group) | writhing number ([4]; HEA 15 mg/kg ip, 0.7% acetic acid, within 15 minutes, vs solvent group) |
| --- | --- | --- | --- | --- | --- | --- | --- | --- | --- | --- | --- | --- | --- |
| CCCn1c(=O)c2[nH]c(C3CCCC3)nc2n(CCC)c1=O [DPCPX, reference compound] | significantly inhibit the anti-convulsion effect of the HEA; also recorded: significantly reduce the anti-convulsion effect of the HEA | may be antagonized | hypnosis effect of the HEA is significantly inhibited | analgesic effect of the HEA is significantly antagonized | analgesic effect was reduced | significantly increase renal tubulointerstitial impairment scores | aggravate tissue necrosis | – | – | – | – | – | – |
| OCCNc1ncnc2c1ncn2[C@@H]1O[C@H](CO)[C@@H](O)[C@H]1O [HEA, N(6)-(2-hydroxyethyl)-adenosine] | – | – | – | – | – | significantly reduced | significantly reduced compared with IR group | significantly extend the survival time | very significantly reduce the mortality | significantly improve neurological symptom of dMCAO rat; also recorded: significantly improve neurological function of the injured brain | extended sleep time of the mice induced by threshold dose of pentobarbital sodium to a certain degree; also recorded: extends mouse sleep time induced by threshold dose of pentobarbital sodium to a certain degree | no statistical difference in sleep latency; also recorded: no significant effect on sleep latency | significantly reduced the writhing number; also recorded: significantly reduce writhing number |
